Series [1] can be described thus: In vivo assessment of brain penetration in mice (IV 1 mg/kg, plasma and brain levels). The settings on record: mouse, BL/6 mice; for Kp at 15 min / Kp at 60 min: brain and plasma, brain:plasma; for Kp at 15 min: read-out: Mouse B:P at 15 min; for Kp at 60 min: read-out: Mouse B:P at 60 min.
Another series deals with T1, Full length Human HDAC6 (Homo sapiens, UniProt Q9UBN7).
T1 sequence (Q9UBN7 1-1215): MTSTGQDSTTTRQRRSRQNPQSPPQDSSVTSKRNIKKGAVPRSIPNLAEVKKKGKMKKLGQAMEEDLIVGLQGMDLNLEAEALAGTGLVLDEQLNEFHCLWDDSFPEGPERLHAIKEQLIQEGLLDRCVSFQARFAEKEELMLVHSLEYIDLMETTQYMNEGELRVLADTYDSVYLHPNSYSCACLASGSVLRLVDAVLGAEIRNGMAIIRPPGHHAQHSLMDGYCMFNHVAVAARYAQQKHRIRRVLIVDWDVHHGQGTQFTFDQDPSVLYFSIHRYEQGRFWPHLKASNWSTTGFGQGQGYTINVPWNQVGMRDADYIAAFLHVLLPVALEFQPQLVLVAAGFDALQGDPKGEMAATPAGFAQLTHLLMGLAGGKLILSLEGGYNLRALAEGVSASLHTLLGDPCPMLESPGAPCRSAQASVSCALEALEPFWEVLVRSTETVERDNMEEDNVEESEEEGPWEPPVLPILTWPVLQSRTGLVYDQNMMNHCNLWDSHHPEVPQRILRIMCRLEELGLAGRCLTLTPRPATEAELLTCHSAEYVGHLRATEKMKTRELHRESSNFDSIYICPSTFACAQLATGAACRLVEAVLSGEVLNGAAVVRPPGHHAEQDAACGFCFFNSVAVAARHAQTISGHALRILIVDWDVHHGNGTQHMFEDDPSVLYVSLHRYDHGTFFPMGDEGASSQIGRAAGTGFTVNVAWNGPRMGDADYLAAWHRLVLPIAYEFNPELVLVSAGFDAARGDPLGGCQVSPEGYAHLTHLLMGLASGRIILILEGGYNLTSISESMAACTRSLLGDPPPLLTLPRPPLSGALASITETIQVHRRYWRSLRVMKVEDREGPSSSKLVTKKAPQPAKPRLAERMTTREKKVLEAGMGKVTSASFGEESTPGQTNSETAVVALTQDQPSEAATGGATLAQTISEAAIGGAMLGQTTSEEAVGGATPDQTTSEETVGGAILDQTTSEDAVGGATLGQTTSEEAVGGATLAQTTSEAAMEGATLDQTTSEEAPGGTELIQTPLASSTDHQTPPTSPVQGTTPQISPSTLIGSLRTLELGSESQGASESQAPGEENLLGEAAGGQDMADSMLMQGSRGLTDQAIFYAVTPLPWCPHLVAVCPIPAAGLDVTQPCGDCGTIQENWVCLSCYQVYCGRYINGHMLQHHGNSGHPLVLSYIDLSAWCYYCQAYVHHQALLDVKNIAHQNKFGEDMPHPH
Particulars: for Selectivity (6 v 8) (fold): ratio of HDAC8 IC50/HDAC6 IC50.

A further series addresses T2, Human HDAC7 aa 518-end (Homo sapiens, UniProt Q8WUI4).
T2 sequence (Q8WUI4 518-952 limits assumed): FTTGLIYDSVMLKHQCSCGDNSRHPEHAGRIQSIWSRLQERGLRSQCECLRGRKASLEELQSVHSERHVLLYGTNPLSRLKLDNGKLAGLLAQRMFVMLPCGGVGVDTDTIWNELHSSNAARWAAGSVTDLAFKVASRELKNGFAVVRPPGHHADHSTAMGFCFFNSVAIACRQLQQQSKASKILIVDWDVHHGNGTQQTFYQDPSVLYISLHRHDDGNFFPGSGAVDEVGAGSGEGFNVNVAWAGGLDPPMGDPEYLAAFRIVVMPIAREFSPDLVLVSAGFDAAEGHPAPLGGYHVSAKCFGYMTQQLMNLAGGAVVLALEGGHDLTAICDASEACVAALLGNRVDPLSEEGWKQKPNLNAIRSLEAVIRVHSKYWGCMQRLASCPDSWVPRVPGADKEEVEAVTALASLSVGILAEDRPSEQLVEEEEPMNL

The target of another series is T3, Full length Human HDAC8 (Homo sapiens, UniProt Q9BY41).
T3 sequence (Q9BY41 1-377): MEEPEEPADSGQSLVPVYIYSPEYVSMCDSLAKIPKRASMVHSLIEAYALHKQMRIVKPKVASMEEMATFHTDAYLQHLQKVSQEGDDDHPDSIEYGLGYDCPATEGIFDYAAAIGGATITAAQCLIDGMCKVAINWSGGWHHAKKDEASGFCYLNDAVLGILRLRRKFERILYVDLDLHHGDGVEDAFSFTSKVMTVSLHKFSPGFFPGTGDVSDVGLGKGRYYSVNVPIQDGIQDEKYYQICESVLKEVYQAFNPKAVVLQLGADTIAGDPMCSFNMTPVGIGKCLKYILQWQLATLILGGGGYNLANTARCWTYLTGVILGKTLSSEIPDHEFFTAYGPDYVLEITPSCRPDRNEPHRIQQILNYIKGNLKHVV

For a further series, the target named is T4, Full length Human HDAC10 (Homo sapiens, UniProt Q969S8).
T4 sequence (Q969S8 1-669): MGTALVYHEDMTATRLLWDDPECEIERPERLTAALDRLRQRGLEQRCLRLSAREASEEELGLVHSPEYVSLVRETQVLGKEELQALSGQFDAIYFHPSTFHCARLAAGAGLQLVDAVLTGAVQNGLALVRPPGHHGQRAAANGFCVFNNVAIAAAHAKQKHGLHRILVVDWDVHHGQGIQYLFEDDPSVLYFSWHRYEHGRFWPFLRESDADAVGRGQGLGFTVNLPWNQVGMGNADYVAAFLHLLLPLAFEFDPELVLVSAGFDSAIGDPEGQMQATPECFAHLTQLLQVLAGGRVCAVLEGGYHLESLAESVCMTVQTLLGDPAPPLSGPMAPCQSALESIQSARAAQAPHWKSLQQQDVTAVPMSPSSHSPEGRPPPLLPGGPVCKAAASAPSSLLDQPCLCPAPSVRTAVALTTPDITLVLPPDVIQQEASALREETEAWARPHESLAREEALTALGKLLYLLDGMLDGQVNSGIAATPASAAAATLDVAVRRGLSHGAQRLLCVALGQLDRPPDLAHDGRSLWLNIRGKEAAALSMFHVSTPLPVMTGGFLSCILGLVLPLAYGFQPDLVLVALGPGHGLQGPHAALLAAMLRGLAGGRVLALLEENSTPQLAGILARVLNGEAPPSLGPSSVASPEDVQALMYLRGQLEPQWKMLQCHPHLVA

Where [2] appears, read: brain, read-out: Mouse Brain Conc (μM) at 15 min.
The mark [3] stands for this setting: brain, read-out: Mouse Brain Conc (μM) at 60 min.
Where [4] appears, read: plasma, read-out: Mouse Plasma Conc (μM) at 15 min.
The mark [5] stands for this setting: plasma, read-out: Mouse Plasma Conc (μM) at 60 min.
The mark [6] stands for this setting: read-out: In vitro enzymatic IC50, HDAC Paralog 6, Table 2.
Where [7] appears, read: read-out: In vitro enzymatic IC50, HDAC Paralog 8, Table 2.

Read-outs that look alike come from different tables or passages of the source.

`O=C(NO)c1ccc2c(c1)C[C@@H]1CCCN1C2` (single isomer, unassigned) [compound 121]: the concentration at 15 min was 0.19 µM in series [1] (setting [2]) and 0.96 µM in series [1] (setting [4]). In addition, the values for the concentration at 60 min in series [1] (setting [3]) and in series [1] (setting [5]) were 0.06 µM and 0.01 µM, respectively. Moreover, in series [1], the Kp at 15 min came out at 0.19. Besides, the Kp at 60 min in series [1] stood at 5.89. Further, the “Selectivity (6 v 8) (fold)” value is given as 80.9 fold on Full length Human HDAC6 (Table 1, number) and “III (III: >10-100)” on Full length Human HDAC6 (Table 1, range class).

Consider `CC1(C)C[C@@H]2Cc3c(F)cc(C(=O)NO)cc3CN2C1` (single isomer, unassigned) [compound 127], for which the IC50 on Full length Human HDAC6 is 1 to 100 nM; at Human HDAC7 aa 518-end, 1000 to 10000 nM; against Full length Human HDAC8 it was 1000 to 10000 nM; on Full length Human HDAC10, above 100000 nM.

Consider `C[C@H]1CC[C@H]2c3c(F)cc(C(=O)NO)cc3CCN12` (single isomer, unassigned) [compound 157], for which the IC50 at Full length Human HDAC6 was in the range of 1 to 100 nM; on Human HDAC7 aa 518-end, 100 to 1000 nM; on Full length Human HDAC8, 1000 to 10000 nM; against Full length Human HDAC10, 10000 to 100000 nM.

For the compound `CN1CC2(CCCCC2)CC[C@@H]1Cc1cc(F)cc(C(=O)NO)c1` (single isomer, unassigned) [compound 170], the IC50 at Full length Human HDAC6 lay within 1 to 100 nM; on Full length Human HDAC6 (setting [6]), 1 to 100 nM; on Human HDAC7 aa 518-end it was 1000 to 10000 nM; at Full length Human HDAC8, 1000 to 10000 nM; at Full length Human HDAC8 (setting [7]), 1000 to 10000 nM; against Full length Human HDAC10, 10000 to 100000 nM. Further, the “Selectivity (6 v 8) (fold)” value at Full length Human HDAC6 (Table 1, number) was 68 fold; on Full length Human HDAC6 (Table 1, range class) it was “III (III: >10-100)”.

In the case of `O=C(NO)c1cc(F)c2c(c1)CCN(C1CC3(CCC3)C1)C2` [compound 112], the IC50 is 1 to 100 nM against Full length Human HDAC6; 1 to 100 nM at Full length Human HDAC6 (setting [6]); 10000 to 100000 nM against Human HDAC7 aa 518-end; above 100000 nM on Full length Human HDAC8; above 100000 nM at Full length Human HDAC8 (setting [7]); above 100000 nM against Full length Human HDAC10. The “Selectivity (6 v 8) (fold)” value is reported as above 12414.6 fold on Full length Human HDAC6 (Table 1, number) and “V (V: >1000)” at Full length Human HDAC6 (Table 1, range class).

As to `O=C(NO)c1ccc(CN2C3CCCC2CCC3)c(F)c1` [compound 60], the 50% inhibitory concentration (IC50) against Full length Human HDAC6 was 100 to 1000 nM; at Full length Human HDAC6 (setting [6]), 100 to 1000 nM; at Human HDAC7 aa 518-end, 1000 to 10000 nM; against Full length Human HDAC8 it was 1000 to 10000 nM; on Full length Human HDAC8 (setting [7]), 1000 to 10000 nM; against Full length Human HDAC10, above 100000 nM. Moreover, the “Selectivity (6 v 8) (fold)” value at Full length Human HDAC6 (Table 1, number) is 5.8 fold; on Full length Human HDAC6 (Table 1, range class), “II (II: >1-10)”.

For the compound `CC1(C)C[C@H]2Cc3c(F)cc(C(=O)NO)cc3CN2C1` (single isomer, unassigned) [compound 128], the IC50 against Full length Human HDAC6 is 100 to 1000 nM; against Human HDAC7 aa 518-end, 1000 to 10000 nM; against Full length Human HDAC8, 1000 to 10000 nM; against Full length Human HDAC10, above 100000 nM.

Take `O=C(NO)c1cc(F)c2c(c1)CCN(C1CC3(COC3)C1)C2` [compound 111]: the half-maximal inhibitory concentration (IC50) at Full length Human HDAC6 is 1 to 100 nM; at Full length Human HDAC6 (setting [6]), 1 to 100 nM; against Human HDAC7 aa 518-end it was 10000 to 100000 nM; against Full length Human HDAC8, 10000 to 100000 nM; on Full length Human HDAC8 (setting [7]), 10000 to 100000 nM; against Full length Human HDAC10, 10000 to 100000 nM. Besides, the “Selectivity (6 v 8) (fold)” value on Full length Human HDAC6 (Table 1, number) is listed as 461.1 fold; on Full length Human HDAC6 (Table 1, range class), “IV (IV: >100-1000)”.

Regarding `O=C(NO)c1cc(F)c2c(c1)CN(CC13C4C5C6C4C1C6C53)CC2` (stereo not drawn) [compound 116, 2-(cuban-1-ylmethyl)-5-fluoro-N-hydroxy-1,2,3,4-tetrahydroisoquinoline-7-carboxamide], the concentration at 15 min in series [1] (setting [2]) is 0.39 µM; in series [1] (setting [4]), 0.25 µM. Besides, the concentration at 60 min amounted to 0 µM in series [1] (setting [3]) and 0.02 µM in series [1] (setting [5]). In addition, the Kp at 15 min in series [1] was found to be 1.57. In series [1], the Kp at 60 min turned out to be 0. Further, the half-inhibitory concentration (IC50) was in the range of 1 to 100 nM on Full length Human HDAC6 and 100 to 1000 nM against Full length Human HDAC8. Besides, the “Selectivity (6 v 8) (fold)” value is reported as 11 fold on Full length Human HDAC6 (Table 1, number) and “III (III: >10-100)” at Full length Human HDAC6 (Table 1, range class).

For the compound `O=C(NO)c1cc(F)c2c(c1)CCN([C@@H]1CCC3(CCCCC3)C1)C2` (single isomer, unassigned) [compound 110], the IC50 lay within 1 to 100 nM on Full length Human HDAC6; 10000 to 100000 nM at Human HDAC7 aa 518-end; 1000 to 10000 nM on Full length Human HDAC8; 1000 to 10000 nM at Full length Human HDAC8 (setting [7]); 10000 to 100000 nM on Full length Human HDAC10.

In the case of `O=C(NO)c1cc(F)c2c(c1)CCN1CCCC[C@@H]21` (single isomer, unassigned) [compound 139], the IC50 at Full length Human HDAC6 was in the range of 1 to 100 nM; at Human HDAC7 aa 518-end, 1000 to 10000 nM; against Full length Human HDAC8, 1000 to 10000 nM; against Full length Human HDAC10, 10000 to 100000 nM.

On to `C[C@@H]1CC[C@H]2c3c(F)cc(C(=O)NO)cc3CCN12` (single isomer, unassigned) [compound 158], for which the IC50 was 1 to 100 nM on Full length Human HDAC6, 100 to 1000 nM against Human HDAC7 aa 518-end, 1000 to 10000 nM against Full length Human HDAC8 and above 100000 nM on Full length Human HDAC10.

The term IC50 denotes the concentration that inhibits the measured activity by half.

Values taken from patent US12528767B2, “HDAC6 inhibitors and uses thereof” (Eikonizo Therapeutics, Inc., priority 2019, dated 2026).
